Concentration data for 1 compound are collected here from ChEMBL document CHEMBL5214964 (Bioorg Med Chem Lett, 2022).

Data set [1] in a line: in vivo. The following applies: rat, plasma, ip, 20 mg/kg.
Data set [2] can be described thus: in vivo. The following applies: rat, plasma, ip, 20 mg/kg. This is another data set of the same source.
Data set [3] is described as follows: in vivo. The following applies: rat, plasma, ip, 20 mg/kg. The source holds these as a separate data set.
A short description of data set [4]: in vivo. The following applies: rat, synovial fluid, ip, 20 mg/kg.

Structures are written as SMILES.

In the data set “in vivo [1]”, `NCCNS(=O)(=O)c1ccc(-c2ccc(CSc3nc4c(c(=O)[nH]3)CCC4)cc2)cc1` registered a concentration at 1 h of 115 µM. This compound showed a concentration at 2 h in “in vivo [2]” of 85 µM. For the same compound, the concentration at 4 h in “in vivo [3]” is 57 µM; in “in vivo [4]”, 3.27 µM.
